According to patent US9642869B2, “Boronic acid derivatives and therapeutic uses thereof” (Rempex Pharmaceuticals, Inc., priority 2013, dated 2017):

How the values were obtained:
ECL1002 [1] = assay: Aztreonam potentiation (MPC@4); assay type: cell-based; conditions: minimum BLI concentration inhibiting growth with 4 μg/mL aztreonam
CTX-M-15 KP1009 [2] = assay type: cell-based
CMY-6 EC1010 [3] = assay type: cell-based; conditions: minimum BLI concentration inhibiting growth with tigemonam at 4 μg/mL
SHV-5 ec308 [4] = assay type: cell-based; conditions: minimum BLI concentration inhibiting growth with tigemonam at 4 μg/mL
CTX-M-14 KP1005 [5] = assay type: cell-based
SHV-5 ec308 [6] = assay: Aztreonam potentiation (MPC@4); assay type: cell-based; conditions: minimum BLI concentration inhibiting growth with 4 μg/mL aztreonam
KPC-2 = KPC-2 (Klebsiella pneumoniae, UniProt Q9F663); assay: Inhibition of nitrocefin cleavage by purified enzyme (Ki); assay type: biochemical; conditions: nitrocefin reporter substrate, 10 min preincubation; read-out: Ki (KPC-2, NCF)
Chain of KPC-2 (Q9F663 25-293 limits assumed): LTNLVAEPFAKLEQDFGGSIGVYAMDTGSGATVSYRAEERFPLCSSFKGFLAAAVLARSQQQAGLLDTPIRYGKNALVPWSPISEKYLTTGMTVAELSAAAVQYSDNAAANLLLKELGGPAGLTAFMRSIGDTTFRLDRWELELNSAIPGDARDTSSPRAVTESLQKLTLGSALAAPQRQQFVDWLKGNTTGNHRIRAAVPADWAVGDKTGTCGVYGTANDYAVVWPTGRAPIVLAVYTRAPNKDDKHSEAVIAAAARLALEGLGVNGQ
Summary of the method: (§1)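 10 min RT preincubation, enzyme with inhibitor series in reaction buffer. Substrate nitrocefin; kinetic read 490 nm, 10 sec intervals, 10 min total.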

P99 = P99 (Enterobacter cloacae, UniProt P05364); assay: as above; assay type: biochemical; conditions: nitrocefin reporter substrate, 10 min preincubation; read-out: Ki (P99, NCF)
Chain of P99 (P05364 21-381): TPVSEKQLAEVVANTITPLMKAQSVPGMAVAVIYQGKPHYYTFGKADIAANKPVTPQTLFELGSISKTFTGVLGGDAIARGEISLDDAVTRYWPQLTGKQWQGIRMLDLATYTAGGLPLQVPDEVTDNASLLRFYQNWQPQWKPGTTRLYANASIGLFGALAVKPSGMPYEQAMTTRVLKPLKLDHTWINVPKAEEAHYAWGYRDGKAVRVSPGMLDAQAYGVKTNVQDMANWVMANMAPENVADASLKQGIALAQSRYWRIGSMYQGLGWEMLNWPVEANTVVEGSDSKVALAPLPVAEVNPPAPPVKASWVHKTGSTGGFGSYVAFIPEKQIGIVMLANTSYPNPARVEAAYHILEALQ
Summary of the method: as §1

CTX-M-14 = CTX-M-14 (Escherichia coli, UniProt Q9L5C7); assay: as above; assay type: biochemical; conditions: nitrocefin reporter substrate, 10 min preincubation; read-out: Ki (CTX-M-14, NCF)
Chain of CTX-M-14 (Q9L5C7 entry or part of it): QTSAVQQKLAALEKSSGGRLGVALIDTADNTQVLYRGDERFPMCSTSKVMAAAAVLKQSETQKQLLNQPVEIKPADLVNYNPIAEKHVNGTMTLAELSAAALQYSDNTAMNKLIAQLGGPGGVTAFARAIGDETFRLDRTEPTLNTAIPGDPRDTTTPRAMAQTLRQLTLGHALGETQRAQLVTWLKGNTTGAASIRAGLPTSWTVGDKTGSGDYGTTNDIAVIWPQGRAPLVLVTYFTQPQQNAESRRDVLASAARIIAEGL
Summary of the method: as §1

OXA-48 = OXA-48 (Klebsiella pneumoniae, UniProt Q6XEC0); assay: as above; assay type: biochemical; conditions: nitrocefin reporter substrate, 10 min preincubation; read-out: Ki (OXA-48, NCF)
Chain of OXA-48 (Q6XEC0 23-265 limits assumed): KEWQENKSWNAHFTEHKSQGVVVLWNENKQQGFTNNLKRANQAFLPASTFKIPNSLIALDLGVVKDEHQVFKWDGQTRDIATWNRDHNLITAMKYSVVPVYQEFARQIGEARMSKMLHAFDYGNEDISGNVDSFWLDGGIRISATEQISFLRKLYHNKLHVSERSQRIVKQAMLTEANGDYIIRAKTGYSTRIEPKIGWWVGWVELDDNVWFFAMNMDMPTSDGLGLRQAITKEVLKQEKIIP
Summary of the method: as §1

SHV-12 = SHV-12 (Klebsiella pneumoniae, UniProt P0AD64, E235K/G234S/L31Q); assay: as above; assay type: biochemical
Chain of SHV-12 (P0AD64 22-286 L31Q/G234S/E235K): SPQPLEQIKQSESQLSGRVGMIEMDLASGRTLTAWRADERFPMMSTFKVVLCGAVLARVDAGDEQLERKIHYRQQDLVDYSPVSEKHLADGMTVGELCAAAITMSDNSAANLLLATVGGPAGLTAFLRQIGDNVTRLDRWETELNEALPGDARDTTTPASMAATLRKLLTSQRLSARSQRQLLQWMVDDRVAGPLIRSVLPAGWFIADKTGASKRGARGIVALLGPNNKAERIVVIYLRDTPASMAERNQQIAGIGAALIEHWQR
Summary of the method: as §1

CTX-M-15 KP1009 [7] = assay: Aztreonam potentiation (MPC@4); assay type: cell-based; conditions: minimum BLI concentration inhibiting growth with 4 μg/mL aztreonam
KP1004 KPC-2 = assay: Biapenem potentiation (MPC@1); assay type: cell-based; conditions: minimum BLI concentration inhibiting growth with 1 μg/mL biapenem
Procedure: (§2) Biapenem was present in the test medium at 1 μg/mL. […] Table 3 summarizes the BLI potency of biapenem potentiation (MPC@1) for two strains overexpressing class A (KPC) and class D (OXA-48) carbapenemases. Biapenem MIC for each strain is also shown.

OXA-48 KP1086 = assay: Biapenem potentiation (MPC@1); assay type: cell-based; conditions: minimum BLI concentration inhibiting growth with 1 μg/mL biapenem
Procedure: as §2

CMY-6 EC1010 [8] = assay: Aztreonam potentiation (MPC@4); assay type: cell-based; conditions: minimum BLI concentration inhibiting growth with 4 μg/mL aztreonam
[9] = Intravenous pharmacokinetics; assay type: in vivo; conditions: rat, plasma; rats, IV infusion over 0.5 hours, dose 20 mg/kg; read-out: Free Cl (converted)
Procedure: Rats (n=3 per compound) were administered by a single infusion. IV doses were infused over 0.5 hours via an indwelling femoral vein cannula. Plasma (˜0.3 mL) samples were collected from each rat at designated time points up to 24 hours. Blood samples were centrifuged within 5 min of collection at 12000 g for 5 min to obtain plasma. The plasma samples were stored at −80° C. until analyzed. Data were analyzed using WinNonlin.

CTX-M-14 KP1005 [10] = assay: Aztreonam potentiation (MPC@4); assay type: cell-based; conditions: minimum BLI concentration inhibiting growth with 4 μg/mL aztreonam
ECL1002 [11] = assay type: cell-based; conditions: minimum BLI concentration inhibiting growth with tigemonam at 4 μg/mL
TEM-10 ec302 [12] = assay: Aztreonam potentiation (MPC@4); assay type: cell-based; conditions: minimum BLI concentration inhibiting growth with 4 μg/mL aztreonam
KPC-2 KP1004 = assay: Aztreonam potentiation (MPC@4); assay type: cell-based; conditions: minimum BLI concentration inhibiting growth with 4 μg/mL aztreonam
TEM-10 ec302 [13] = assay type: cell-based

Compound	AZT MPC4 ECL1002 (ECL1002 [1])	TIG MPC4 CTX-M-15 KP1009 (CTX-M-15 KP1009 [2])	TIG MPC4 CMY-6 EC1010 (CMY-6 EC1010 [3])	TIG MPC4 SHV-5 ec308 (SHV-5 ec308 [4])	TIG MPC4 CTX-M-14 KP1005 (CTX-M-14 KP1005 [5])	AZT MPC4 SHV-5 ec308 (SHV-5 ec308 [6])	Ki (KPC-2)	Ki (P99)	Ki (CTX-M-14)	Ki (OXA-48)	Ki (SHV-12)	AZT MPC4 CTX-M-15 KP1009 (CTX-M-15 KP1009 [7])	BPM MPC1 KP1004 KPC-2 (KP1004 KPC-2)	BPM MPC1 OXA-48 KP1086 (OXA-48 KP1086)	AZT MPC4 CMY-6 EC1010 (CMY-6 EC1010 [8])	AZT MPC4 CTX-M-14 KP1005 (CTX-M-14 KP1005 [10])	TIG MPC4 ECL1002 (ECL1002 [11])	AZT MPC4 TEM-10 ec302 (TEM-10 ec302 [12])	AZT MPC4 KPC-2 KP1004 (KPC-2 KP1004)	further results
O=C(CSC1CNC1)N[C@H]1Cc2cccc(C(=O)O)c2OB1O [Compound 22, (R)-3-(2-(azetidin-3-ylthio)acetamido)-2-hydroxy-3,4-dihydro-2H-benzo[e][1,2]oxaborinine-8-carboxylic acid]	X (MIC of less than 1 μg/mL)	X (key: X: MIC of less than 1 μg/mL; Y: MIC of 1 μg/mL to 10 μg/mL; Z: MIC of greater than 10 μg/mL)	X (MIC of less than 1 μg/mL)	Y (MIC of 1 μg/mL to 10 μg/mL)	Y (key: X: MIC of less than 1 μg/mL; Y: MIC of 1 μg/mL to 10 μg/mL; Z: MIC of greater than 10 μg/mL)	X (MIC of less than 1 μg/mL)	> 10 nM	1 to 10 nM	1 to 10 nM	1 to 10 nM	< 1 nM	X (MIC of less than 1 μg/mL)	X (MIC of less than 1 μg/mL)	Y (MIC of 1 μg/mL to 10 μg/mL)	X (MIC of less than 1 μg/mL)	X (MIC of less than 1 μg/mL)	X (MIC of less than 1 μg/mL)	Y (MIC of 1 μg/mL to 10 μg/mL)	X (MIC of less than 1 μg/mL)	clearance [9]: 9.5 mL/min/kg
Nc1nnc(C(=O)N[C@H]2Cc3cccc(C(=O)O)c3OB2O)o1 [Compound 20, (R)-3-(5-amino-1,3,4-oxadiazole-2-carboxamido)-2-hydroxy-3,4-dihydro-2H-benzo[e][1,2]oxaborinine-8-carboxylic acid]	X (MIC of less than 1 μg/mL)	X (key: X: MIC of less than 1 μg/mL; Y: MIC of 1 μg/mL to 10 μg/mL; Z: MIC of greater than 10 μg/mL)	X (MIC of less than 1 μg/mL)	X (MIC of less than 1 μg/mL)	Y (key: X: MIC of less than 1 μg/mL; Y: MIC of 1 μg/mL to 10 μg/mL; Z: MIC of greater than 10 μg/mL)	X (MIC of less than 1 μg/mL)	> 10 nM	1 to 10 nM	1 to 10 nM	1 to 10 nM	1 to 10 nM	X (MIC of less than 1 μg/mL)	X (MIC of less than 1 μg/mL)	Y (MIC of 1 μg/mL to 10 μg/mL)	X (MIC of less than 1 μg/mL)	Y (MIC of 1 μg/mL to 10 μg/mL)	X (MIC of less than 1 μg/mL)	Y (MIC of 1 μg/mL to 10 μg/mL)	Y (MIC of 1 μg/mL to 10 μg/mL)	TIG MPC4 TEM-10 ec302 (TEM-10 ec302 [13]): Y (key: X: MIC of less than 1 μg/mL; Y: MIC of 1 μg/mL to 10 μg/mL; Z: MIC of greater than 10 μg/mL)
